According to US20170158699A1, “ADDITION SALTS OF (S)-2-(1-(6-AMINO-5-CYANOPYRIMIDIN-4-YLAMINO)ETHYL)-4-OXO-3-PHENYL-3,4-DIHYDROPYRROLO[1,2-F][1,2,4]TRIAZINE-5-CARBONITRILE” (Almirall, S.A., priority 2014, published 2017):
Values after ≈ are worked out from the molar mass of the structure shown. Like-named read-outs stand apart in the source and are kept apart here.

What was measured:
Format in all cases: physicochemical
[1] = Differential scanning calorimetry (DSC) thermal stability
Description: The differential scanning calorimetry (DSC) thermograms were obtained using a TA Instruments Q2000 equipped with a 50 position auto-sampler. The calibration for thermal capacity was carried out using sapphire and the calibration for energy and temperature was carried out using certified indium. […] (some runs up to 400° C.). A purge of dry nitrogen at 50 ml/min was maintained over the sample.

[2] = Gravimetric Vapour Sorption (GVS) isotherm, XRPD checked afterwards; conditions: for Hygroscopicity / water sorption behaviour (GVS): 0-90% RH; for Hygroscopicity / water sorption behaviour (GVS) / GVS mass change: 25° C.; for Change in form or crystallinity (XRPD) after GVS measurement: XRPD before and after GVS; for GVS mass change: from 0-90% RH
Description: X-Ray Powder Diffraction (XRPD) patterns were collected on a Bruker D8 diffractometer using Cu Ka radiation (40 kV, 40 mA), θ-2θ goniometer, and divergence of V4 and receiving slits, a Ge monochromator and a Lynxeye detector. The instrument is performance checked using a certified Corundum standard (NIST 1976). The software used for data collection was Diffrac Plus XRD Commander v2.6.1 and the data were analysed and presented using Diffrac Plus EVA v13.0.0.2 or v15.0.0.0.
Samples were run under ambient conditions as flat plate specimens using powder as received. The sample was gently packed into a cavity cut into polished, zero-background (510) silicon wafer. The sample was rotated in its own plane during analysis. The details of the data collection were: • Angular range: 2 to 42° 2θ • Step size: 0.05° 2θ • Collection time: 0.5 s/step
Gravimetric Vapour Sorption (GVS; also known as Dynamic Vapour Sorption or DVS) isotherms were obtained using a SMS DVS Intrinsic moisture sorption analyser, controlled by DVS Intrinsic Control software v1.0.1.2. The sample temperature was maintained at 25° C. by the instrument controls. The humidity was controlled by mixing streams of dry and wet nitrogen, with a total flow rate of 200 mL/min The relative humidity was measured by a calibrated Rotronic probe (dynamic range of 1.0-100% RH), located near the sample. The weight change, (mass relaxation) of the sample as a function of % RH was constantly monitored by the microbalance (accuracy ±0.005 mg).
Typically 5-20 mg of sample were placed in a tared mesh stainless steel basket under ambient conditions. The sample was loaded and unloaded at 40% RH and 25° C. (typical room conditions). A moisture sorption isotherm was performed as outlined below (4 scans giving 2 complete cycles). The standard isotherm was performed at 25° C. at 10% RH intervals over a 0-90% RH range.

Water-solubility test = conditions: room temperature (25° C.)

Stability of the sample up to temperature (DSC) [1]	Hygroscopicity / water sorption behaviour (GVS) [2]	Change in form or crystallinity (XRPD) after GVS measurement [2]	GVS mass change [2]	solubility (Water-solubility test) [µg/mL]	Compound	Water Solubility @ 25° C. (Water-solubility test) [µg/mL]	Stability of the sample up to temperature (DSC) ([1]; heated at 10° C./min, dry nitrogen purge)
more than 250 °C	reversible and no hydrates were formed	no change in form or crystallinity	approx. 3.3%	–	C[C@H](Nc1ncnc(N)c1C#N)c1nn2ccc(C#N)c2c(=O)n1-c1ccccc1.O=S(=O)(O)c1ccc2ccccc2c1 [Example 2, (S)-2-(1-(6-amino-5-cyanopyrimidin-4-ylamino)ethyl)-4-oxo-3-phenyl-3,4-dihydropyrrolo[1,2-f][1,2,4]triazine-5-carbonitrile naphthalene-2-sulfonate]	–	–
more than 250 °C	not hygroscopic	no change in form or crystallinity	approx. 0.3%	–	C[C@H](Nc1ncnc(N)c1C#N)c1nn2ccc(C#N)c2c(=O)n1-c1ccccc1.Cc1ccc(S(=O)(=O)O)cc1 [Example 3, (S)-2-(1-(6-amino-5-cyanopyrimidin-4-ylamino)ethyl)-4-oxo-3-phenyl-3,4-dihydropyrrolo[1,2-f][1,2,4]triazine-5-carbonitrile para-toluenesulfonate]	–	–
–	–	–	–	1 (≈ 2.52 µM)	C[C@H](Nc1ncnc(N)c1C#N)c1nn2ccc(C#N)c2c(=O)n1-c1ccccc1 [Example C1, (S)-2-(1-(6-amino-5-cyanopyrimidin-4-ylamino)ethyl)-4-oxo-3-phenyl-3,4-dihydropyrrolo[1,2-f][1,2,4]triazine-5-carbonitrile]	–	–

Compound	Stability of the sample up to temperature (DSC) [1]	Hygroscopicity / water sorption behaviour (GVS) [2]	Change in form or crystallinity (XRPD) after GVS measurement [2]	GVS mass change [2]	solubility (Water-solubility test) [µg/mL]	Water Solubility @ 25° C. (Water-solubility test) [µg/mL]	Stability of the sample up to temperature (DSC) ([1]; heated at 10° C./min, dry nitrogen purge)
(S)-2-(1-(6-amino-5-cyanopyrimidin-4-ylamino)ethyl)-4-oxo-3-phenyl-3,4-dihydropyrrolo[1,2-f][1,2,4]triazine-5-carbonitrile methanesulfonate [Example 1]	–	not hygroscopic	no change in form or crystallinity	approx. 1.2%	–	60	more than 300 °C
